{
  "source": "BigSolDB 2.1",
  "data": [
    {"smiles": "CSCC[C@H](NC(=O)OCC1c2ccccc2-c2ccccc21)C(=O)O", "values": [
      {"measurement": "solubility (mole fraction)", "setting": "in 2-butanone, 283.15 K", "value": 0.0269},
      {"measurement": "solubility (mole fraction)", "setting": "in 2-butanone, 288.15 K", "value": 0.0314},
      {"measurement": "solubility (mole fraction)", "setting": "in 2-butanone, 293.15 K", "value": 0.0336},
      {"measurement": "solubility (mole fraction)", "setting": "in 2-butanone, 298.15 K", "value": 0.0406},
      {"measurement": "solubility (mole fraction)", "setting": "in 2-butanone, 303.15 K", "value": 0.0454},
      {"measurement": "solubility (mole fraction)", "setting": "in 2-butanone, 308.15 K", "value": 0.0513},
      {"measurement": "solubility (mole fraction)", "setting": "in 2-butanone, 313.15 K", "value": 0.0621},
      {"measurement": "solubility (mole fraction)", "setting": "in 2-butanone, 318.15 K", "value": 0.0695},
      {"measurement": "solubility (mole fraction)", "setting": "in 2-butanone, 323.15 K", "value": 0.0818},
      {"measurement": "solubility (mole fraction)", "setting": "in acetone, 283.15 K", "value": 0.0457},
      {"measurement": "solubility (mole fraction)", "setting": "in acetone, 288.15 K", "value": 0.0475},
      {"measurement": "solubility (mole fraction)", "setting": "in acetone, 293.15 K", "value": 0.0553},
      {"measurement": "solubility (mole fraction)", "setting": "in acetone, 298.15 K", "value": 0.0614},
      {"measurement": "solubility (mole fraction)", "setting": "in acetone, 303.15 K", "value": 0.0722},
      {"measurement": "solubility (mole fraction)", "setting": "in acetone, 308.15 K", "value": 0.0806},
      {"measurement": "solubility (mole fraction)", "setting": "in acetone, 313.15 K", "value": 0.0892},
      {"measurement": "solubility (mole fraction)", "setting": "in acetone, 318.15 K", "value": 0.0961},
      {"measurement": "solubility (mole fraction)", "setting": "in acetone, 323.15 K", "value": 0.11},
      {"measurement": "solubility (mole fraction)", "setting": "in acetonitrile, 283.15 K", "value": 0.00368},
      {"measurement": "solubility (mole fraction)", "setting": "in acetonitrile, 288.15 K", "value": 0.00465},
      {"measurement": "solubility (mole fraction)", "setting": "in acetonitrile, 293.15 K", "value": 0.00571},
      {"measurement": "solubility (mole fraction)", "setting": "in acetonitrile, 298.15 K", "value": 0.00724},
      {"measurement": "solubility (mole fraction)", "setting": "in acetonitrile, 303.15 K", "value": 0.00847},
      {"measurement": "solubility (mole fraction)", "setting": "in acetonitrile, 308.15 K", "value": 0.00974},
      {"measurement": "solubility (mole fraction)", "setting": "in acetonitrile, 313.15 K", "value": 0.0111},
      {"measurement": "solubility (mole fraction)", "setting": "in acetonitrile, 318.15 K", "value": 0.0127},
      {"measurement": "solubility (mole fraction)", "setting": "in acetonitrile, 323.15 K", "value": 0.0155},
      {"measurement": "solubility (mole fraction)", "setting": "in isobutanol, 283.15 K", "value": 0.00438},
      {"measurement": "solubility (mole fraction)", "setting": "in isobutanol, 288.15 K", "value": 0.00573},
      {"measurement": "solubility (mole fraction)", "setting": "in isobutanol, 293.15 K", "value": 0.00736},
      {"measurement": "solubility (mole fraction)", "setting": "in isobutanol, 298.15 K", "value": 0.0102},
      {"measurement": "solubility (mole fraction)", "setting": "in isobutanol, 303.15 K", "value": 0.0136},
      {"measurement": "solubility (mole fraction)", "setting": "in isobutanol, 308.15 K", "value": 0.0165},
      {"measurement": "solubility (mole fraction)", "setting": "in isobutanol, 313.15 K", "value": 0.023},
      {"measurement": "solubility (mole fraction)", "setting": "in isobutanol, 318.15 K", "value": 0.032},
      {"measurement": "solubility (mole fraction)", "setting": "in isobutanol, 323.15 K", "value": 0.0402},
      {"measurement": "solubility (mole fraction)", "setting": "in isopentanol, 283.15 K", "value": 0.00409},
      {"measurement": "solubility (mole fraction)", "setting": "in isopentanol, 288.15 K", "value": 0.00489},
      {"measurement": "solubility (mole fraction)", "setting": "in isopentanol, 293.15 K", "value": 0.00573},
      {"measurement": "solubility (mole fraction)", "setting": "in isopentanol, 298.15 K", "value": 0.00778},
      {"measurement": "solubility (mole fraction)", "setting": "in isopentanol, 303.15 K", "value": 0.00996},
      {"measurement": "solubility (mole fraction)", "setting": "in isopentanol, 308.15 K", "value": 0.0126},
      {"measurement": "solubility (mole fraction)", "setting": "in isopentanol, 313.15 K", "value": 0.0154},
      {"measurement": "solubility (mole fraction)", "setting": "in isopentanol, 318.15 K", "value": 0.02},
      {"measurement": "solubility (mole fraction)", "setting": "in isopentanol, 323.15 K", "value": 0.0248},
      {"measurement": "solubility (mole fraction)", "setting": "in isopropanol, 283.15 K", "value": 0.00635},
      {"measurement": "solubility (mole fraction)", "setting": "in isopropanol, 288.15 K", "value": 0.00765},
      {"measurement": "solubility (mole fraction)", "setting": "in isopropanol, 293.15 K", "value": 0.00792},
      {"measurement": "solubility (mole fraction)", "setting": "in isopropanol, 298.15 K", "value": 0.00932},
      {"measurement": "solubility (mole fraction)", "setting": "in isopropanol, 303.15 K", "value": 0.0142},
      {"measurement": "solubility (mole fraction)", "setting": "in isopropanol, 308.15 K", "value": 0.0213},
      {"measurement": "solubility (mole fraction)", "setting": "in isopropanol, 313.15 K", "value": 0.0326},
      {"measurement": "solubility (mole fraction)", "setting": "in isopropanol, 318.15 K", "value": 0.0474},
      {"measurement": "solubility (mole fraction)", "setting": "in isopropanol, 323.15 K", "value": 0.0669},
      {"measurement": "solubility (mole fraction)", "setting": "in n-butanol, 283.15 K", "value": 0.0142},
      {"measurement": "solubility (mole fraction)", "setting": "in n-butanol, 288.15 K", "value": 0.0178},
      {"measurement": "solubility (mole fraction)", "setting": "in n-butanol, 293.15 K", "value": 0.0204},
      {"measurement": "solubility (mole fraction)", "setting": "in n-butanol, 298.15 K", "value": 0.0237},
      {"measurement": "solubility (mole fraction)", "setting": "in n-butanol, 303.15 K", "value": 0.0295},
      {"measurement": "solubility (mole fraction)", "setting": "in n-butanol, 308.15 K", "value": 0.0339},
      {"measurement": "solubility (mole fraction)", "setting": "in n-butanol, 313.15 K", "value": 0.0394},
      {"measurement": "solubility (mole fraction)", "setting": "in n-butanol, 318.15 K", "value": 0.0478},
      {"measurement": "solubility (mole fraction)", "setting": "in n-butanol, 323.15 K", "value": 0.0542},
      {"measurement": "solubility (mole fraction)", "setting": "in n-butyl acetate, 283.15 K", "value": 0.0129},
      {"measurement": "solubility (mole fraction)", "setting": "in n-butyl acetate, 288.15 K", "value": 0.015},
      {"measurement": "solubility (mole fraction)", "setting": "in n-butyl acetate, 293.15 K", "value": 0.0173},
      {"measurement": "solubility (mole fraction)", "setting": "in n-butyl acetate, 298.15 K", "value": 0.0203},
      {"measurement": "solubility (mole fraction)", "setting": "in n-butyl acetate, 303.15 K", "value": 0.0242},
      {"measurement": "solubility (mole fraction)", "setting": "in n-butyl acetate, 308.15 K", "value": 0.028},
      {"measurement": "solubility (mole fraction)", "setting": "in n-butyl acetate, 313.15 K", "value": 0.0347},
      {"measurement": "solubility (mole fraction)", "setting": "in n-butyl acetate, 318.15 K", "value": 0.0426},
      {"measurement": "solubility (mole fraction)", "setting": "in n-butyl acetate, 323.15 K", "value": 0.0532},
      {"measurement": "solubility (mole fraction)", "setting": "in n-pentanol, 283.15 K", "value": 0.00977},
      {"measurement": "solubility (mole fraction)", "setting": "in n-pentanol, 288.15 K", "value": 0.0117},
      {"measurement": "solubility (mole fraction)", "setting": "in n-pentanol, 293.15 K", "value": 0.0149},
      {"measurement": "solubility (mole fraction)", "setting": "in n-pentanol, 298.15 K", "value": 0.019},
      {"measurement": "solubility (mole fraction)", "setting": "in n-pentanol, 303.15 K", "value": 0.0272},
      {"measurement": "solubility (mole fraction)", "setting": "in n-pentanol, 308.15 K", "value": 0.033},
      {"measurement": "solubility (mole fraction)", "setting": "in n-pentanol, 313.15 K", "value": 0.0399},
      {"measurement": "solubility (mole fraction)", "setting": "in n-pentanol, 318.15 K", "value": 0.0514},
      {"measurement": "solubility (mole fraction)", "setting": "in n-pentanol, 323.15 K", "value": 0.0667},
      {"measurement": "solubility (mole fraction)", "setting": "in n-propanol, 283.15 K", "value": 0.0101},
      {"measurement": "solubility (mole fraction)", "setting": "in n-propanol, 288.15 K", "value": 0.0141},
      {"measurement": "solubility (mole fraction)", "setting": "in n-propanol, 293.15 K", "value": 0.0172},
      {"measurement": "solubility (mole fraction)", "setting": "in n-propanol, 298.15 K", "value": 0.0231},
      {"measurement": "solubility (mole fraction)", "setting": "in n-propanol, 303.15 K", "value": 0.0271},
      {"measurement": "solubility (mole fraction)", "setting": "in n-propanol, 308.15 K", "value": 0.0324},
      {"measurement": "solubility (mole fraction)", "setting": "in n-propanol, 313.15 K", "value": 0.0407},
      {"measurement": "solubility (mole fraction)", "setting": "in n-propanol, 318.15 K", "value": 0.0496},
      {"measurement": "solubility (mole fraction)", "setting": "in n-propanol, 323.15 K", "value": 0.0542},
      {"measurement": "solubility (mole fraction)", "setting": "in n-propyl acetate, 283.15 K", "value": 0.0155},
      {"measurement": "solubility (mole fraction)", "setting": "in n-propyl acetate, 288.15 K", "value": 0.0181},
      {"measurement": "solubility (mole fraction)", "setting": "in n-propyl acetate, 293.15 K", "value": 0.021},
      {"measurement": "solubility (mole fraction)", "setting": "in n-propyl acetate, 298.15 K", "value": 0.0252},
      {"measurement": "solubility (mole fraction)", "setting": "in n-propyl acetate, 303.15 K", "value": 0.0295},
      {"measurement": "solubility (mole fraction)", "setting": "in n-propyl acetate, 308.15 K", "value": 0.0361},
      {"measurement": "solubility (mole fraction)", "setting": "in n-propyl acetate, 313.15 K", "value": 0.0399},
      {"measurement": "solubility (mole fraction)", "setting": "in n-propyl acetate, 318.15 K", "value": 0.043},
      {"measurement": "solubility (mole fraction)", "setting": "in n-propyl acetate, 323.15 K", "value": 0.0456},
      {"measurement": "solubility (mole fraction)", "setting": "in sec-butanol, 283.15 K", "value": 0.00898},
      {"measurement": "solubility (mole fraction)", "setting": "in sec-butanol, 288.15 K", "value": 0.0109},
      {"measurement": "solubility (mole fraction)", "setting": "in sec-butanol, 293.15 K", "value": 0.0152},
      {"measurement": "solubility (mole fraction)", "setting": "in sec-butanol, 298.15 K", "value": 0.0223},
      {"measurement": "solubility (mole fraction)", "setting": "in sec-butanol, 303.15 K", "value": 0.0311},
      {"measurement": "solubility (mole fraction)", "setting": "in sec-butanol, 308.15 K", "value": 0.0438},
      {"measurement": "solubility (mole fraction)", "setting": "in sec-butanol, 313.15 K", "value": 0.0506},
      {"measurement": "solubility (mole fraction)", "setting": "in sec-butanol, 318.15 K", "value": 0.0612},
      {"measurement": "solubility (mole fraction)", "setting": "in sec-butanol, 323.15 K", "value": 0.0868}
    ]}
  ]
}
